Laboratory results reported in article PMC7913925, “Design and Evaluation of a Polypeptide That Mimics the Integrin Binding Site for EDA Fibronectin to Block Profibrotic Cell Activity” (International Journal of Molecular Sciences, 2021).
Bridges are numbered along the chain shown (N, C = ends). Where no end group is shown, it is not given here.

Key:
[1] = biological target: FN-EDA (peptide sharing sequence with the C-C′ loop of EDA-FN) (Homo sapiens, UniProt P02751); assay: Isothermal calorimetry, AF38Pep with FN-EDA; assay type: binding; conditions: 25 °C, pH 7
Description: Custom designed peptides were resuspended in sterile-filtered HEPES buffered saline (140 mM NaCl, 1.5 mM Na2HPO4, 50 mM HEPES; pH 7). The larger EDA-FN binding peptide was diluted to 15 µM, degassed and added to the calorimetry chamber well. Three smaller test peptides (fibronectin EDA-peptide, FN-EDA; fibronectin RGD-peptide, FN-RGD and collagen I RGD-peptide, COL-RGD) were diluted to 300 µM, degassed and each was separately loaded into the calorimetry injection needle. The chamber well temperature was kept consistent at 25 °C. Blank buffer was used to replace either the well peptide or the injection needle peptide to account for background heat generation. Isothermal titration calorimetry was performed using a MicroCal iTC200 (Malvern Panalytical, Malvern, UK) and dissociation constant (KD) and association constant (KA) were calculated using the one set of sites model fitting (with number of binding sites assumed to be 1) in MicroCal Origin Software v8.5 (Malvern Panalytical).

[2] = tested on: VCAM1–ITGA4 interaction; assay: Co-IP of VCAM1 with ITGA4; assay type: cell-based; conditions: 48 h, Co-IP with anti-ITGA4
Description: (§1) Total protein was extracted from cells in RIPA lysis buffer containing 1% protease inhibitor cocktail, 1% phenylmethylsulfonyl fluoride, and 1% sodium orthovanadate (Santa Cruz Biotechnology, Santa Cruz, CA, USA). Protein was quantified by Micro BCA Protein Assay Kit (Thermo Fisher Scientific) before 7.5% SDS-PAGE and transfer to nitrocellulose. Membranes were blocked with 5% bovine serum albumin (BSA; Sigma-Aldrich)/0.5% Tween-20 (Sigma-Aldrich)/PBS for 1 h, RT, followed by incubation with primary antibodies diluted in 1% BSA/0.1% Tween-20/PBS, overnight at 4 °C. Primary antibodies were: anti-phosphoY204/Y187 ERK1/2 (1:1000); anti-ERK1/2 (1:1000); anti-phosphoY861 FAK (1:1000); anti-FAK (1:2000). Immunoblotting for anti-GAPDH (1:2500) was used as a protein loading control. Following wash steps, membranes were incubated in goat anti-rabbit IgG H&L secondary antibody (horseradish peroxidase, HRP conjugate, […]) (Abcam; 1:5000 dilution, 1% BSA/0.1% Tween-20/PBS). Detection was performed using Immobilon reagent (Merck Millipore, Burlington, MA, USA) and imaged using a Tanon 5500 Chemiluminescent Imaging System (Tanon, Shanghai, China).
A volume of 25 µg total protein from cell lysate in nondenaturing lysis buffer containing protease inhibitors was immunoprecipitated (IP) using anti-ITGA4 antibodies linked to protein A/G sepharose beads (Abcam). […]

[3] = tested on: ERK1/2 in NIH/3T3 fibroblasts; assay: Western blot ERK1/2 phosphorylation; assay type: cell-based, mouse; conditions: TGF-β1 10 ng/mL, AF38Pep 10 µg/mL
Description: as §1

[4] = tested on: pro-MMP9; assay: Gelatinase zymography pro-MMP9; assay type: cell-based, mouse; conditions: 48 h, TGF-β1 10 ng/mL, AF38Pep 10 µg/mL, conditioned medium
Description: Conditioned media were collected from cells incubated with serum-free medium (SFM) alone, SFM containing 10 ng/mL TGF-β1, SFM containing 10 µg/mL AF38Pep, or SFM containing both 10 ng/mL TGF-β1 and 10 µg/mL AF38Pep. Conditioned medium was concentrated 10× by filtrating spin columns (Amicon Ultra-4 10 kDa MWCO, Merck Millipore) and protein was quantified by Micro BCA Protein Assay Kit (Thermo Fisher Scientific). A 1.5 mm thick 10% nonreducing acrylamide gel containing gelatin was prepared and 10 µg of sample in 5 × nonreducing buffer was loaded into the gel lanes. The gel was run at 100 V until the protein entered the stacking gel layer, then the voltage was increased to 150 V until the marker achieved resolved band separation. The gels were then washed twice for 30 min using wash buffer to remove SDS and renature the enzymes. Gels were further rinsed for 5–10 min in incubation buffer at 37 °C with agitation to activate the gelatinase reaction. Fresh incubation buffer was added, and the gels were incubated overnight at 37 °C. Gels were stained with staining solution containing Coomassie blue for between 30 min to 1 h, before rinsing with ddH2O and subsequent incubation with de-stain solution until bands could be observed. The gels were transferred to 2% acetic acid and rehydrated overnight for imaging by scanner.

[5] = tested on: Tgfb1 mRNA in NIH/3T3 fibroblasts; assay: qRT-PCR Tgfb1 mRNA; assay type: cell-based, mouse; conditions: 48 h, TGF-β1 10 ng/mL
Description: (§2) Reverse transcription (RT) and real-time quantitative PCR (qRT-PCR) were used to assess ACTA2/Acta2, Col1a1, Col3a1, Fn1, Eda-Fn1, Mmp9, Tgfb1, Ltbp1, Hic5, and Mrtfa mRNA expressions. Custom PCR primers were designed in-house (Table 2) and then synthesized by BGI (Beijing, China). Cells were grown in 6-well culture plates and washed with phosphate buffered saline (PBS) before lysis with TRIzon Reagent (CWBio, Beijing, China) and total RNA purification according to the manufacturer’s protocol. Reverse transcription was carried using the TransScript First-Strand cDNA Synthesis SuperMix kit according to the manufacturer’s protocol (TransGen, Beijing, China), using the random primer method for the initiation of cDNA synthesis. Nuclease-free H2O replaced the RNA sample to serve as a negative control for the reverse transcription reaction. For qRT-PCR, 10 µL 2× TransStart Top Green qPCR SuperMix was added to each well of a 96-well PCR plate containing 0.4 µL forward primer, 0.4 µL reverse primer, […], and nuclease-free water to a total volume of 20 µL. The qRT-PCR reaction was completed using a CFX96 Real-Time PCR Detection System (Bio-Rad Laboratories, Hercules, CA, USA). Amplification used the following parameters: 94 °C for 30 s, followed by 40 cycles of 94 °C for 5 s, 55 °C for 15 s, 72 °C for 10 s, and then a dissociation stage (melt-curve). […]

[6] = tested on: Fn1 mRNA; assay: qRT-PCR Fn1 mRNA; assay type: cell-based, mouse
Description: as §2

“VMPYISTTPAKPCTSENCGNSWYGGFKSKNENKIYFIN (disulfide 13-18 (inferred)) [AF38Pep]” was tested, and the “ITC interaction (thermogram)” value [1] was “there was a detectable interaction between AF38Pep and FN-EDA”, the “VCAM1–ITGA4 binding” value [2] was “unaffected by cell treatments and remained at basal levels” and the ERK1/2 phosphorylation ([3]; 1 h) was “significantly suppressed”. For the same sequence, the ERK1/2 phosphorylation ([3]; 12 h) was “not prevented”, the pro-MMP9 gelatinase activity [4] was “suppressed activity levels” and the “TGF-β1 mRNA expression” value [5] was “attenuated”. The “fibronectin mRNA expression” value ([6]; 72 h, TGF-β1 + AF38Pep) was “all inhibited” and the “fibronectin mRNA expression” value ([6]; by 48 h, vs TGF-β1-only) was “significant attenuation”.
